One assay addresses T1, human MAO-B (Homo sapiens, UniProt P27338).
T1 construct: expressed in transfected cells; host or cells: EBNA cells (transient transfection); cell membranes
T1 sequence (P27338 1-520): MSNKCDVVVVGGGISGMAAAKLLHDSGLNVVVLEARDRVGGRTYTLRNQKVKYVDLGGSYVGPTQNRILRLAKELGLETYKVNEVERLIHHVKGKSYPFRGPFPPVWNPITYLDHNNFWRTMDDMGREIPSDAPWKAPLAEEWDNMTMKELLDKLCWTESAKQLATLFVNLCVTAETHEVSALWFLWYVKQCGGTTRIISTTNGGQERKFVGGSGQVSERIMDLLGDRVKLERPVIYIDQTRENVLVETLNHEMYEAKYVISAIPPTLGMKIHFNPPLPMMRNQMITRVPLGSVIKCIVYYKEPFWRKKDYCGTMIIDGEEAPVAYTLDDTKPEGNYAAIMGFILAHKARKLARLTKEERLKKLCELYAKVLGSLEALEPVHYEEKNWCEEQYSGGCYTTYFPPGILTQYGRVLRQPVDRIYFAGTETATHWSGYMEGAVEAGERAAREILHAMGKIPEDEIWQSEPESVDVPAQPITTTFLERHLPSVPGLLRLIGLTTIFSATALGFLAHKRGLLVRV
Description: [3H]Ro 19-6327 binding assay for MAO-B on membranes of transfected EBNA cells. The note with it: 20 nM [3H]Ro 19-6327, 1 hour at 25° C., membranes of EBNA cells transfected with human MAO-B. As for the experimental part: (§1) The cDNA's encoding human MAO-A and MAO-B were transiently transfected into EBNA cells using the procedure described by E.-J. Schlaeger and K. Christensen (Transient Gene Expression in Mammalian Cells Grown in Serum-free Suspension Culture; Cytotechnology, 15: 1-13, 1998). After transfection, cells were homogeneised by means of a Polytron homogeneiser in 20 mM Tris HCI buffer, pH 8.0, containing 0.5 mM EGTA and 0.5 mM phenylmethanesulfonyl fluoride. Cell membranes were obtained by centrifugation at 45,000×g and, after two rinsing step with 20 mM Tris HCI buffer, pH 8.0, containing 0.5 mM EGTA, membranes were eventually re-suspended in the above buffer and aliquots stored at −80° C. until use.
(§2) MAO-A and MAO-B activities were assayed by [^3H]Ro 41-1049 [tritiated N-(2-aminoethyl)-5-(3-fluorophenyl)-4-thiazole-carboxamide] and [^3H] Ro 19-6327 [tritiated N-(2-aminoethyl)-5-chloro-2-pyridinecarboxamide, [^3H] lazabemide] binding, respectively, following the methods described by Cesura et al. (Characterization of the binding of [^3H]Ro 41-1049 to the active site of monoamine oxidase-A, Molec. Pharmacol. 1990, 37, 358-366; [^3H]Ro 19-6327: a reversible ligand and affinity-labeling probe for monoamine oxidase-B, Eur. J. Pharmacol., 1989, 162, 457-465). Briefly, membrane aliquots were incubated in the presence of 20 nM [^3H]Ro 41-1049 (MAO-A assay) and [^3H]Ro 19-6327 (MAO-B assay) for 1 hour at 37° C. and 25° C., respectively, with or without various concentrations of the compounds, in a final volume of 0.2 ml. The incubation buffer consisted of 50 mM Tris, 130 mM NaCl, 5 mM KCI, 1 mM MgCl2, 0.5 mM EGTA, buffered to pH 7.4 with HCl. The assay was terminated by filtering the samples through GF/C filters (Unifilter-96, Canberra Packard). The radioactivity retained on the filters was eventually counted for radioactivity by means of a Packard Top-Count scintillation counter, after addition of Microscint 40 scintillation fluid (Canberra Packard). Non-specific binding was determined in the presence of 10 μM clorgyline for MAO-A or 10 μM L-deprenyl for MAO-B.
(§3) IC50 values, that is, the concentration of a test compound of formula I required to inhibit the MAO-B enzyme activity by 50%, were determined from inhibition curves obtained using nine inhibitor concentrations in duplicate, by fitting data to a four parameter logistic equation using a computer program.

A further assay addresses T2, human MAO-A (Homo sapiens, UniProt P21397).
T2 construct: expressed in transfected cells; host or cells: EBNA cells (transient transfection); cell membranes
T2 sequence (P21397 1-527): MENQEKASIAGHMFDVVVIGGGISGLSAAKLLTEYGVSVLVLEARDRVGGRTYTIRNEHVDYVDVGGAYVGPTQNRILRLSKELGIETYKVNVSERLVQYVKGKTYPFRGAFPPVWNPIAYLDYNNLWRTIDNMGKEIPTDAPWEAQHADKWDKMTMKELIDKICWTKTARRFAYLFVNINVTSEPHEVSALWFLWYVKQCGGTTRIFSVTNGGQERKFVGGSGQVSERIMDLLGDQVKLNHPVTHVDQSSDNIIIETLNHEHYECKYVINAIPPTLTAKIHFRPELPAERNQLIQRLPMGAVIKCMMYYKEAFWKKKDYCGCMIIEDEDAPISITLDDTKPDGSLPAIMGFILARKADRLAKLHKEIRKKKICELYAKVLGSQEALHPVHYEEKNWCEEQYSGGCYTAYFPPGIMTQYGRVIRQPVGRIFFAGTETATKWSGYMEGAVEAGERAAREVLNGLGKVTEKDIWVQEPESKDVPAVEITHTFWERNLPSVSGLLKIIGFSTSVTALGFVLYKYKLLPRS
Description: [3H]Ro 41-1049 binding assay for MAO-A on membranes of transfected EBNA cells. The note with it: 20 nM [3H]Ro 41-1049, 1 hour at 37° C., membranes of EBNA cells transfected with human MAO-A. As for the experimental part:
as §1, §2, §3

A word on the IC50: it is the concentration at which inhibition is half-maximal. Lower therefore signals greater potency. Take `NC(=O)CNC(=O)c1ccc(OCc2cccc(F)c2)cn1` [Example 7, 5-(3-Fluoro-benzyloxy)-pyridine-2-carboxylic Acid Carbamoylmethyl-amide]: the IC50 on human MAO-B was 28 nM; on human MAO-A, 9160 nM.
For the compound `NC(=O)CNC(=O)c1ccc(OCc2ccccc2)nc1` [Example 1, 6-Benzyloxy-N-carbamoylmethyl-nicotinamide], the IC50 at human MAO-B is 33 nM; at human MAO-A, greater than 10000 nM.
The corresponding values for `NC(=O)CNC(=O)c1ccc(OCc2ccc(F)cc2)cn1` [Example 8, 5-(4-Fluoro-benzyloxy)-pyridine-2-carboxylic Acid Carbamoylmethyl-amide] are 30 nM and greater than 10000 nM.
The corresponding values for `C[C@H](NC(=O)c1ccc(OCc2ccc(F)cc2)cn1)C(N)=O` [Example 11, (S)-5-(4-Fluoro-benzyloxy)-pyridine-2-carboxylic Acid (1-carbamoyl-ethyl)-amide] are 70 nM and greater than 10000 nM.
Consider `NC(=O)CNC(=O)c1ccc(OCc2ccc(F)c(F)c2)cn1` [Example 9, 5-(3,4-Difluoro-benzyloxy)-pyridine-2-carboxylic Acid Carbamoylmethyl-amide], for which the IC50 is 43 nM at human MAO-B and greater than 10000 nM on human MAO-A.
The corresponding values for `NC(=O)CNC(=O)c1ccc(OCc2cccc(F)c2)nc1` [Example 2, N-Carbamoylmethyl-6-(3-fluoro-benzyloxy)-nicotinamide] are 30 nM and 4150 nM.

Source of the values: patent US6667327B2, “Pyridine amido derivatives” (Hoffmann-La Roche Inc., priority 2003, dated 2003).
